# Measurements taken from patent US20060110594A1, “Polymer-coated substrates for binding biomolecules and methods of making and using thereof” (priority 2004, published 2006).
# Where “and” joins values, the source holds several entries; their conditions need not be identical. Equal entries are not always repeated. Where two headings read alike, the source gives them in different places.
# Experiments:
# Lys-D-Ala-D-Ala [1] = assay: Vancomycin competitive inhibition binding assay, SPR
# Method: (§1) To test the specificity of the interaction, a competitive binding assay was performed in which the surface was incubated with a fixed (5 μM) concentration of vancomycin in the presence of varying concentrations of the peptide Lys-D-Ala-D-Ala. […] Similar competitive inhibition experiments were performed on a Corning LID microplate coated with EMA (see FIG. 7).
# Lys-D-Ala-D-Ala [2] = conditions: measured in solution (ref 12); read-out: Kd reported in the literature; cited from earlier work
# Lys-D-Ala-D-Ala [3] = assay: Vancomycin competitive inhibition on EMA coated microplate, Corning LID; format: binding; conditions: in the presence of excess (250 uM) Lys-D-Ala-D-Ala
# Method: as §1
# Lys-D-Ala-D-Ala [4] = assay: Vancomycin binding to immobilized Lys-D-Ala-D-Ala, SPR (Biacore 2000); conditions: for Total Signal: 5 μM vancomycin; for Nonspecific Binding: 5 uM vancomycin + 500 μM DADA; for Kd: Scatchard analysis, vancomycin 10, 5, 2.5, 1.25 μM
# Method: (Vancomycin is an antibiotic that binds to the C-terminal D-Ala-D-Ala group of Gram-positive bacterial cell wall precursors and inhibits cell wall synthesis.) Experiments were performed on the Biacore 2000 SPR instrument using gold sensor chips modified with either EMA or poly(triethylene glycol-co-maleic anhydride) (“PEG-MA”); for comparison, experiments were also performed on Biacore's CM5 surface.
# human serum albumin = human serum albumin (Homo sapiens, UniProt P02768); assay: Drug binding to human serum albumin immobilized on EMA, Corning LID
# Method: HSA was immobilized on the sensor surface by incubating the wells with a solution of 60 ug/mL of the protein in an acetate buffer (20 mM, pH 5.5) for 15 minutes. As negative controls, additional wells were blocked with ethanolamine. After thorough washing with PBS buffer and water, residual reactive groups were blocked by incubating the wells for 10 minutes with ethanolamine (200 mM, pH 9.2).
# [5] = Streptavidin/BSA binding to biotin immobilized on MAMVE and SMA, Biacore SPR; conditions: streptavidin 1 μM; biotin-groups immobilized on MAMVE; BSA as control
# From the text: Biacore SPR detection was used for these experiments in which biotin was immobilized on the surfaces by injecting solutions of 5-(biotinamido)pentylamine over each surface. […] Non-specific binding of proteins to surfaces such as those presenting hydrophobic aromatic groups is well documented; the inertness of surfaces presenting —OCH3 groups to non-specific adsorption has also been observed (13).
# [6] = isoelectric point, listed property; cited from earlier work
# [7] = Streptavidin binding to immobilized biotin on EMA coated microplate, Corning LID; conditions: streptavidin 100 nM in PBS, six wells
# Method: The performance of EMA in a small molecule/protein binding assay was tested using a biotin/streptavidin model system and Corning LID detection. Biotin was immobilized in rows A-G of a Corning LID microplate by incubating each well with 75 uL of a 10 uM solution of biotin-peo-amine in borate buffer (150 mM, pH 9) for 30 minutes; row H was reacted with ethanolamine (200 mM in borate buffer, pH 9) to serve as a negative control. The plate was docked in the LID instrument and the binding of streptavidin (100 nM in phosphate buffered saline (PBS)) was monitored as a function of time as shown in FIG. 4A.
# streptavidin = streptavidin (Streptomyces avidinii, UniProt P22629); assay: Small molecule binding to streptavidin immobilized on EMA, Corning LID; conditions: for signal-to-noise ratio: binding to streptavidin immobilized on EMA
# Method: Streptavidin was immobilized on an EMA coated LID microplate by incubating the wells with a solution of 25 ug/mL of the protein in an acetate buffer (20 mM, pH 5.5) for 15 minutes. As negative controls, additional wells were blocked with ethanolamine. The binding of the small molecule fluorescein-biotin (“Fl-biotin”, 831 Da) was monitored as a function of time in the LID instrument. A 100 nM solution of Fl-biotin in PBS was introduced into each well and allowed to bind for several minutes. […] The data have been corrected for bulk index of refraction effects by subtracting out the response from the negative control well. […] This experiment was repeated in each column of the plate with similar results.
# streptavidin, sequence (P22629 25-183, species assumed): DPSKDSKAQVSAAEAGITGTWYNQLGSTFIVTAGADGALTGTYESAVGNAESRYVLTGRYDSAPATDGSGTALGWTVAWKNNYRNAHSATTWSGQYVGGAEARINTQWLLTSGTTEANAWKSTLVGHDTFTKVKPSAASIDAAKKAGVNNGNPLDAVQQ
# human serum albumin, sequence (P02768 25-609): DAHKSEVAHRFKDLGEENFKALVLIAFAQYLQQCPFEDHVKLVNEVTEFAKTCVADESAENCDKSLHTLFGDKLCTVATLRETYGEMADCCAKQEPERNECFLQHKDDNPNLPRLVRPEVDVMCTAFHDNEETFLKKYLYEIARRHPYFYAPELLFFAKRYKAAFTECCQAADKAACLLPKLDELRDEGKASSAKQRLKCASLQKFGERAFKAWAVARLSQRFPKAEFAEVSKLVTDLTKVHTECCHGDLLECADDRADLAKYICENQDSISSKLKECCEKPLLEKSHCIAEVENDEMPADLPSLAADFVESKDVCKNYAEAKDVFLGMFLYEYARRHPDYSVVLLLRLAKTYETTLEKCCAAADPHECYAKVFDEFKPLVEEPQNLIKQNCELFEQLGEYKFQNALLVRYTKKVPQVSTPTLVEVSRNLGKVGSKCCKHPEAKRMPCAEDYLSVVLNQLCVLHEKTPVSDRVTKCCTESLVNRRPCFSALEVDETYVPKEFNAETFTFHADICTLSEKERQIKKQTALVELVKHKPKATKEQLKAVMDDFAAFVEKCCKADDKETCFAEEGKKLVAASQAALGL
compound,measurement,setting,value
CN[C@H](CC(C)C)C(=O)N[C@H]1C(=O)N[C@@H](CC(N)=O)C(=O)N[C@H]2C(=O)N[C@H]3C(=O)N[C@H](C(=O)N[C@H](C(=O)O)c4cc(O)cc(O)c4-c4cc3ccc4O)[C@H](O)c3ccc(c(Cl)c3)Oc3cc2cc(c3O[C@@H]2O[C@H](CO)[C@@H](O)[C@H](O)[C@H]2O[C@H]2C[C@](C)(N)[C@H](O)[C@H](C)O2)Oc2ccc(cc2Cl)[C@H]1O [vancomycin],"amount of nonspecific binding, lower on PEG-MA relative to EMA",Lys-D-Ala-D-Ala [1]; PEG-MA relative to EMA,~2 ×
same,binding specificity,"Lys-D-Ala-D-Ala [1]; both maleic anhydride copolymer surfaces tested (EMA, PEG-MA), 5 μM vancomycin",> 90%
same,Kd,Lys-D-Ala-D-Ala [2],~1000 nM
same,reduction of vancomycin binding signal,Lys-D-Ala-D-Ala [3],83%
same,Total Signal,Lys-D-Ala-D-Ala [4]; CM5 surface,1251 RU
same,Nonspecific Binding,Lys-D-Ala-D-Ala [4]; CM5 surface,3 RU
same,Kd,Lys-D-Ala-D-Ala [4]; CM5 surface,280 nM and 270 nM
same,Total Signal,Lys-D-Ala-D-Ala [4]; EMA surface,2538 RU
same,Nonspecific Binding,Lys-D-Ala-D-Ala [4]; EMA surface,290 RU
same,Kd,Lys-D-Ala-D-Ala [4]; EMA surface,340 nM
same,Total Signal,Lys-D-Ala-D-Ala [4]; PEG-MA surface,2006 RU
same,Nonspecific Binding,Lys-D-Ala-D-Ala [4]; PEG-MA surface,128 RU
same,Kd,Lys-D-Ala-D-Ala [4]; PEG-MA surface,1300 nM
C[C@H]1O[C@@H](O[C@H]2[C@@H](O)C[C@H](O[C@H]3[C@@H](O)C[C@H](O[C@H]4CC[C@@]5(C)[C@H](CC[C@@H]6[C@@H]5CC[C@]5(C)[C@@H](C7=CC(=O)OC7)CC[C@]65O)C4)O[C@@H]3C)O[C@@H]2C)C[C@H](O)[C@@H]1O [digitoxin],lowest concentration successfully detected,human serum albumin,6 µM
streptavidin: protein binding biotin; 60 kDa,specificity of binding,[5],specific
same,pI,[6],5
same,average response,[7],465 pm
O=C(CCCCCNC(=O)CCCC[C@@H]1SC[C@@H]2NC(=O)N[C@@H]21)NCCCCCNC(=S)Nc1ccc2c(c1)C(=O)OC21c2ccc(O)cc2Oc2cc(O)ccc21 [fluorescein-biotin],signal-to-noise ratio,streptavidin,> 200
"Lysozyme: protein immobilized on EMA, 14 kDa",pI,[6],9.5
O=C(O)CCCC[C@@H]1SC[C@@H]2NC(=O)N[C@@H]21 [biotin],response for binding to immobilized streptavidin,"streptavidin; EMA coated LID microplate, Fl-biotin 100 nM in PBS, relative to negative control well",~5 pm
same,signal-to-noise ratio,streptavidin,~50
